Measured values reported in article PMC3469757 (Journal of medicinal chemistry, 2012).

Tests used:
[1] = target: T1, human TRPV1 (Homo sapiens, UniProt Q8NER1); assay: Capsaicin assay; type: cell-based
[2] = target: T1, human TRPV1; assay: pH assay; type: cell-based; details: hTRPV1 in CHO cells, versus compound 2
[3] = test system: panel of 135 other receptors and enzymes (CEREP); assay: Selectivity panel; details: 10 µM
[4] = target: T1, human TRPV1; assay: [3H]resiniferatoxin binding; details: data not shown
[5] = test system: CCI-induced cold allodynia in rats; assay: Rat Bennett model of neuropathic pain; type: in vivo; details: po
[6] = test system: male NMRI mice; assay: Capsaicin induced hypothermia in mice; type: in vivo, mouse; details: 0.3 mg/kg oral, 15 min before 3 mg/kg ip capsaicin
[7] = test system: C57BL/6J wild type mice; assay: Body temperature in wild type mice; type: in vivo, mouse; details: 1 mg/kg oral, 45 min and 60 min post administration
[8] = test system: TRPV1 knockout mice; assay: Body temperature in TRPV1 knock-out mice; type: in vivo, mouse; details: 1 mg/kg oral

T1 sequence (Q8NER1 whole entry): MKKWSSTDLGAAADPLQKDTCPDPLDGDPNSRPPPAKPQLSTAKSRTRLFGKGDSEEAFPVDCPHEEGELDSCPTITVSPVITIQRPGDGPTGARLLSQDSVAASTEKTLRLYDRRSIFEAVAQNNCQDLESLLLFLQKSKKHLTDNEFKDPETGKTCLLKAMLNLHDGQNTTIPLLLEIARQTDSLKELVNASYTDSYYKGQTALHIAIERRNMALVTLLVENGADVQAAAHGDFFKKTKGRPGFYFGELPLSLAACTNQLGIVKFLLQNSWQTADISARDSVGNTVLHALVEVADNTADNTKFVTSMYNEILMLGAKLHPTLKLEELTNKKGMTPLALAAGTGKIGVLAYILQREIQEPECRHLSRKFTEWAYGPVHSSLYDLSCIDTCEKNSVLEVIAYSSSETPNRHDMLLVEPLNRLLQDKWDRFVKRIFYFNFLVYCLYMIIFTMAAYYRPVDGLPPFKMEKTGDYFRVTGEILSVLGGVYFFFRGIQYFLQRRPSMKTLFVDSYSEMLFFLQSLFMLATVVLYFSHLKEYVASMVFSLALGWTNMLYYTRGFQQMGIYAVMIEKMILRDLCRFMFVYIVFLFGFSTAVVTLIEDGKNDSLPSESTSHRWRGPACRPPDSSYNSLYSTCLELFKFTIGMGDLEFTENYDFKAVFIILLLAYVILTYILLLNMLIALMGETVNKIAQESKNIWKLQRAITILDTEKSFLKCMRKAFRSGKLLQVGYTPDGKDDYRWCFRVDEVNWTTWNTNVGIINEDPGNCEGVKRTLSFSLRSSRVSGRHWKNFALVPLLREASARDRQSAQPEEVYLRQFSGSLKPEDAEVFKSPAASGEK

SMILES: CC1CCN(c2nc(C(F)(F)F)ccc2CNC(=O)[C@@H](C)c2ccc(NS(C)(=O)=O)c(F)c2)CC1 [Compound 49S, (S)-2-(3-Fluoro-4-(methylsulfonamido)phenyl)-N-((2-(4-methylpiperidin-1-yl)-6-(trifluoromethyl)pyridin-3-yl)methyl)propanamide]
- fold more potent than 2 over all four TRPV1 activators ([1]; capsaicin, pH, heat (45°C) and NADA, versus compound 2): 140–660 fold
- fold more potent than lead 3 for capsaicin antagonism ([1]; hTRPV1 in CHO cells, versus compound 3): ~20 fold
- fold better than 2 for pH antagonism [2]: 200 fold
- number of targets not negative in selectivity panel [3]: 7
- number of targets with greater than 50% inhibition [3]: 3
- inhibition of [3H]resiniferatoxin binding to human TRPV1 [4]: inhibited
- side effects like sedation or decreased locomotion [5]: not observed
- effect on capsaicin induced decrease of body temperature [6]: completely inhibited
- body temperature increase [7]: about 1.3 ± 0.1 °C
- hyperthermic response [8]: completely absent
